System: human epidermic cells
Assay: Cell activation effect by cell culture (metabolic activity, WST-1)
Assay type: cell-based
Settings: 0.5% fermented product 1 (SB), alone or combined
Description: Immortalized cells obtained by transforming human epidermic cells (manufactured by Kurabo Industries, Ltd.) using SV40 virus T antigen according to the method of Yasumoto et al. (Cultured Cell Experiment For Molecular Biology Research by S. Yasumoto, edited by T. Kuroki et al., Yodosha Co., Ltd., 1995, pp 191-200) were used as test cells. The cells were disseminated in a 96 well plate (4×10^3 cells/0.1 ml/well) and cultured in a serum-free liquid medium for proliferation (HuMedia-KG 2: Kurabo Industries, Ltd.) under the conditions of 37° C. and a CO2 concentration of 5%. […] The cells were also cultured in media to which the above components were individually added as Comparative Examples, and in a medium to which none of these components were added as a control. On the third day of culturing, a reducing-type coloring reagent (WST-1, manufactured by Dojindo Co.) was added in an amount of 10 μl/well, followed by incubation for 2 hours under the conditions of 37° C. and a CO2 concentration of 5%. Then, absorption at 450-660 nm was measured. Metabolic activity of the cells was calculated from the resulting absorbance. The cell activation effect was evaluated from the rate of increase in the metabolic activity in comparison with the control sample. […]

Compound | metabolic activity of human epidermic cells (5×10^−10 M all-trans-retinoic acid (RA), FIG. 2) | metabolic activity of human epidermic cells (5×10^−9 M all-trans-retinol (ROH), FIG. 1)
CC1=C(/C=C/C(C)=C/C=C/C(C)=C/C(=O)O)C(C)(C)CCC1 [all-trans-retinoic acid] | cannot exhibit metabolic activity | 
CC1=C(/C=C/C(C)=C/C=C/C(C)=C/CO)C(C)(C)CCC1 [all-trans-retinol] |  | cannot exhibit metabolic activity
